Legend:
Type in all cases: biochemical
Src = molecular target: T1, Src (Homo sapiens, UniProt P12931); assay: AlphaScreen kinase assay, Src; settings: read-out: IC50, activity toward kinase Src
T1 construct: P1144. pET-N6 BI-PTP SRC V86-L536-X; made in house

Flt1 = molecular target: T2, Flt1 (Homo sapiens, UniProt P17948); assay: AlphaScreen kinase assay, Flt1; settings: read-out: IC50, activity toward kinase Flt1
T2 construct: P1826.pETN6 BI-PTP FLT1 M799-D1165-X WT; His6 (N); made in house; host or cells: E. coli (PTP1B co-expressed)
T2 sequence (P17948 with tags, fused parts or gaps): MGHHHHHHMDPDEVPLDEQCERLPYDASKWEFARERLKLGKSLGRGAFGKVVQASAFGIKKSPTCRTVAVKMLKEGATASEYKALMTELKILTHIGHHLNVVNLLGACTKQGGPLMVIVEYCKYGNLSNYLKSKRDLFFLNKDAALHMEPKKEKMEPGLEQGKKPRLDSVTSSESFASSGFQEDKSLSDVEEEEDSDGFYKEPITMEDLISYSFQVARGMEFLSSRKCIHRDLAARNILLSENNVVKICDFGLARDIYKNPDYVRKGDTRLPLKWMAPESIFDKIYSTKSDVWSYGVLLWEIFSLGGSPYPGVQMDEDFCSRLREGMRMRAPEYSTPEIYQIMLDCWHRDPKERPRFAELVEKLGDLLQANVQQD

c-Raf-1 = molecular target: T3, c-Raf-1 (Homo sapiens, UniProt P04049); assay: AlphaScreen kinase assay, c-Raf-1; settings: read-out: IC50, activity toward kinase c-Raf-1
T3 construct: purchased Upstate Biotechnology
T3 sequence (P04049 whole entry): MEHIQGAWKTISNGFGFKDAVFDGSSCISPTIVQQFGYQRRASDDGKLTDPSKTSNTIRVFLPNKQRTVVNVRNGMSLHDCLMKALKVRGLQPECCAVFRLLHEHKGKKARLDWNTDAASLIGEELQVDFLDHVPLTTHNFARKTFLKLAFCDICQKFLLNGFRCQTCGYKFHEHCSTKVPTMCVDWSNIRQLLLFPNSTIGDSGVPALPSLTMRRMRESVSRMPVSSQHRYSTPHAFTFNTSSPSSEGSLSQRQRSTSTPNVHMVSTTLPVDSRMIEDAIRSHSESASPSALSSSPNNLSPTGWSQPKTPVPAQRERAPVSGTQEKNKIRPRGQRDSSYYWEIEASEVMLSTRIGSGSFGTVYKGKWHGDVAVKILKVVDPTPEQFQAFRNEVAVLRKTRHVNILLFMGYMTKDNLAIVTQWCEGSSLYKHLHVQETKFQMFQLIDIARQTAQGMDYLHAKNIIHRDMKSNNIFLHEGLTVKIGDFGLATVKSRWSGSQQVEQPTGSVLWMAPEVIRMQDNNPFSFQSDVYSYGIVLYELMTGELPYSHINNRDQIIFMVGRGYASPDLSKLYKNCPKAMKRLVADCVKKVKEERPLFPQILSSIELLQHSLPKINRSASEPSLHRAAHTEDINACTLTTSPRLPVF

B-Raf = molecular target: T4, B-Raf (Homo sapiens, UniProt P15056); assay: AlphaScreen kinase assay, B-Raf; settings: read-out: IC50, activity toward kinase B-Raf
T4 construct: purchased Upstate Biotechnology
T4 sequence (P15056 whole entry): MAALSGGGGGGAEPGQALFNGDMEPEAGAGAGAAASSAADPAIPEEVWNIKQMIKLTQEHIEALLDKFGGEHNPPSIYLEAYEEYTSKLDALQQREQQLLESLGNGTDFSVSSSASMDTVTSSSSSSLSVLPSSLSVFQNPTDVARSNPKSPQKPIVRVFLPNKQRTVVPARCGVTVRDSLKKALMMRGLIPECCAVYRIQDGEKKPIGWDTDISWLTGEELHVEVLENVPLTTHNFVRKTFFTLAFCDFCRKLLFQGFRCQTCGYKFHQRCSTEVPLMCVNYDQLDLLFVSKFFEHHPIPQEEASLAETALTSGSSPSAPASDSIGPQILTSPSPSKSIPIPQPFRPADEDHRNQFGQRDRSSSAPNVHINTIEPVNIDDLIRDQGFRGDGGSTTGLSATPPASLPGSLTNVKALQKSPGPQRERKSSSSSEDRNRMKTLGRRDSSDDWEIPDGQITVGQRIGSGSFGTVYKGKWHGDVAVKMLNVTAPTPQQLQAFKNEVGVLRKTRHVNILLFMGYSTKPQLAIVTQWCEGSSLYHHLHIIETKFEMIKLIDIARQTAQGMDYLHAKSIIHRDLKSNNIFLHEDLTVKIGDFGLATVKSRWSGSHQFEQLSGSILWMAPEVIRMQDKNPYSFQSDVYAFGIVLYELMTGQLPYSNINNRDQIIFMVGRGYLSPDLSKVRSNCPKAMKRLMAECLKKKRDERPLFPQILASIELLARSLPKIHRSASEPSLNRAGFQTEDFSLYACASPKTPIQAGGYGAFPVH

FGFR1 = molecular target: T5, FGFR1 (Homo sapiens, UniProt P11362, C488A/C584S); assay: AlphaScreen kinase assay, FGFR1; settings: read-out: IC50, activity toward kinase FGFR
T5 construct: P1351.pET N6 BI-PTP FGFR A458-E765-X C488A, C584S; made in house; host or cells: E. coli (PTP1B co-expressed)
T5 sequence (P11362 458-765 C488A/C584S): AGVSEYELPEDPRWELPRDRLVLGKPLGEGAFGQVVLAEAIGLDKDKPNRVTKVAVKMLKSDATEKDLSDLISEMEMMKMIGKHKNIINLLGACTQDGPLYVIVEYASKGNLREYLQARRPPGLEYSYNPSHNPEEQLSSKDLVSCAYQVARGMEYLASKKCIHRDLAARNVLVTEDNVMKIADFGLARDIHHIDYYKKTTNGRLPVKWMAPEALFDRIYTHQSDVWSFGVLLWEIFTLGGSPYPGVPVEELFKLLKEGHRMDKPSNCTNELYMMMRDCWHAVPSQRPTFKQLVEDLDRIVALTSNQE

B-Raf V600E = molecular target: T6, B-Raf V600E (Homo sapiens, UniProt P15056, V600E); assay: AlphaScreen kinase assay, B-Raf V600E; settings: read-out: IC50, activity toward kinase B-Raf V600E
T6 construct: P4254. pFastBacBD-CDC37 BRAF D437-K722-X, V600E; His6 with pFastBac HT leader (TEV site) (N); made in house; host or cells: Sf9 (baculovirus; chaperone CDC37 co-expressed)
T6 sequence (P15056 with tags, fused parts or gaps V600E): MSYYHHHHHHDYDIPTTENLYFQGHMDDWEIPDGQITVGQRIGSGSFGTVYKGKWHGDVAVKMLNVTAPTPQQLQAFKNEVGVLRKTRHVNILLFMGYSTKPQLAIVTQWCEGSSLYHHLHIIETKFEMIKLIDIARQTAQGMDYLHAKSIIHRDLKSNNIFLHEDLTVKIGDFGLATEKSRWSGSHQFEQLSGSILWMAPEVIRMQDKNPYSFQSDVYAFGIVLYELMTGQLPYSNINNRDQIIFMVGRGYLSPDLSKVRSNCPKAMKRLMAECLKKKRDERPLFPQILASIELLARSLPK

Fak = molecular target: T7, Fak (Homo sapiens, UniProt Q05397); assay: AlphaScreen kinase assay, Fak; settings: read-out: IC50, activity toward kinase Fak
T7 construct: P1358.pFastBacHtb FAK S411-Q686-X; His6 with pFastBacHTb leader (TEV site) (N); made in house; host or cells: Sf9 (baculovirus)
T7 sequence (Q05397 411-686): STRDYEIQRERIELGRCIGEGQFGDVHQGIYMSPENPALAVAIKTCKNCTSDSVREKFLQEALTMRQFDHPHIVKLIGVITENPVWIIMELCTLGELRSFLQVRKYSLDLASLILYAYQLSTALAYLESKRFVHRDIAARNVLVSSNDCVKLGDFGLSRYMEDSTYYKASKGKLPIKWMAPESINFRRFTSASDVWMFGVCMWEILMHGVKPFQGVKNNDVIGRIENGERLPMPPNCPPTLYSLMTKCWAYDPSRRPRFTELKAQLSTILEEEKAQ

Jnk1 = molecular target: T8, Jnk1 (Homo sapiens, UniProt P45983); assay: AlphaScreen kinase assay, Jnk1; settings: read-out: IC50, activity toward kinase Jnk1
T8 construct: purchased Upstate Biotechnology
T8 sequence (P45983 whole entry): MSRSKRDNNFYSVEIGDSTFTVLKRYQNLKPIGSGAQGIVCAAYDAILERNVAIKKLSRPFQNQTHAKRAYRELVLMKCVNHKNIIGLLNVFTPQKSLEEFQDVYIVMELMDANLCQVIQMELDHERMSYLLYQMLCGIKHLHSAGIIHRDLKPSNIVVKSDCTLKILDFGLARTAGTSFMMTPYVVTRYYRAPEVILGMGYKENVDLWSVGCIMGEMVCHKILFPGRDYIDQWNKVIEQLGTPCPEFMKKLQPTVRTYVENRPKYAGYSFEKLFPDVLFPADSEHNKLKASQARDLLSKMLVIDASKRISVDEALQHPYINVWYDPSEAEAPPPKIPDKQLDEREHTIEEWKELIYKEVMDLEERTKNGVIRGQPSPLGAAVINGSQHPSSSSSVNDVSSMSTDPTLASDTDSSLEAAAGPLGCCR

Kit = molecular target: T9, Kit (Homo sapiens, UniProt P10721); assay: AlphaScreen kinase assay, Kit; settings: read-out: IC50, activity toward kinase Kit
T9 construct: P1332.N6 BI PTP KIT M552-K948-X COD; His6 (N); made in house; host or cells: E. coli (PTP1B co-expressed)
T9 sequence (P10721 with tags, fused parts or gaps): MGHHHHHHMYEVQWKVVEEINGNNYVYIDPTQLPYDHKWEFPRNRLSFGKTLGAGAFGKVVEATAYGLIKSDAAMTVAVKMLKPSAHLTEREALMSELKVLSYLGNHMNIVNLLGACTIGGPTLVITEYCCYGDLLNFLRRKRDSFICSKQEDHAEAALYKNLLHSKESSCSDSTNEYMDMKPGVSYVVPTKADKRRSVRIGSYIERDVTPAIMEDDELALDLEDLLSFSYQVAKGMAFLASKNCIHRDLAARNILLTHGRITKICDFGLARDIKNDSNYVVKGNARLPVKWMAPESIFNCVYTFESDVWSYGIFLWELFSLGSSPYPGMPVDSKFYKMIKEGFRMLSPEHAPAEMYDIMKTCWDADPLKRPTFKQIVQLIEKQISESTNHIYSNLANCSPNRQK

Fms = molecular target: T10, Fms (Homo sapiens, UniProt P07333); assay: AlphaScreen kinase assay, Fms; settings: read-out: IC50, activity toward kinase Fms
T10 construct: purchased Upstate Biotechnology

Jnk3 = molecular target: T11, Jnk3 (Homo sapiens, UniProt P53779); assay: AlphaScreen kinase assay, Jnk3; settings: read-out: IC50, activity toward kinase Jnk3
T11 construct: purchased Upstate Biotechnology
T11 sequence (P53779 whole entry): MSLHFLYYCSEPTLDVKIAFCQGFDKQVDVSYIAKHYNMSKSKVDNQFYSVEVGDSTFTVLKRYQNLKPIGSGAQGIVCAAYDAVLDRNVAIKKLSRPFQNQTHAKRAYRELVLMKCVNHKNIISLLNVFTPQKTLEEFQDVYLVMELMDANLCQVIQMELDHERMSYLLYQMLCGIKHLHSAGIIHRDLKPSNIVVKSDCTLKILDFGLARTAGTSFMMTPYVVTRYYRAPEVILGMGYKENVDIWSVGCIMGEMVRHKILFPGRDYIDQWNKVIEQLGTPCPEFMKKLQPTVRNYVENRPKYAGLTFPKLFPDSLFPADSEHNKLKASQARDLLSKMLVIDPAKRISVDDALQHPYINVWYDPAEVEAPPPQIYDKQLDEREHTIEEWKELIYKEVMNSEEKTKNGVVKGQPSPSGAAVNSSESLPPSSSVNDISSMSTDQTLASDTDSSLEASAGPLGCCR

Measured: IC50

T1 sequence (P12931 with tags, fused parts or gaps): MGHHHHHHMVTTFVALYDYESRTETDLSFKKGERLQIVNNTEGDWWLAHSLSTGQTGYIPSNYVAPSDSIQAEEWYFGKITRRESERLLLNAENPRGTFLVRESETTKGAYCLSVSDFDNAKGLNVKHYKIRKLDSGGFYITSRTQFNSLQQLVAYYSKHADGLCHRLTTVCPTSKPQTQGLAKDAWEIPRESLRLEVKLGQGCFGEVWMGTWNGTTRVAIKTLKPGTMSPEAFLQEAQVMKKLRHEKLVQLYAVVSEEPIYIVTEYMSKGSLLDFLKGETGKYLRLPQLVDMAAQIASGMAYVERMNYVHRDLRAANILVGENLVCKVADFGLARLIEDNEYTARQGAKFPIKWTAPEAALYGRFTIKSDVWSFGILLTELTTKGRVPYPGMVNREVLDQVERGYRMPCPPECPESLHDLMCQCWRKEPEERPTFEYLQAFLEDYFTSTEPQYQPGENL

CCCS(=O)(=O)Nc1cccc(C(=O)c2c[nH]c3ncc(OC)cc23)c1F [Compound P-1256, Propane-1-sulfonic acid [2-fluoro-3-(5-methoxy-1H-pyrrolo[2,3-b]pyridine-3-carbonyl)-phenyl]-amide]
not listed: Fms | Jnk3
≤ 10 µM: all other assays above

c1ccc(Oc2ccc(Nc3c[nH]c4ncccc34)cc2)cc1 [Compound P-1495, (4-Phenoxy-phenyl)-(1H-pyrrolo[2,3-b]pyridin-3-yl)-amine]
≤ 10 µM: Src | Fms | Flt1 | B-Raf V600E | Fak | Kit

O=C(Nc1ccc(F)c(C(=O)c2c[nH]c3ncc(Br)cc23)c1F)OCc1ccccc1 [Compound P-1457]
not listed: c-Raf-1 | FGFR1 | Jnk1 | Jnk3
≤ 10 µM: all other assays above

O=C(Nc1ccc(F)c(C(O)c2c[nH]c3ncc(Br)cc23)c1F)OCc1ccccc1 (stereo not shown) [Compound P-1451]
not listed: Flt1 | Jnk1 | Jnk3
≤ 10 µM: all other assays above

CCCS(=O)(=O)Nc1ccc(F)c(Cc2c[nH]c3ncc(Cl)cc23)c1F [Compound P-1396]
≤ 10 µM: Src | c-Raf-1 | FGFR1 | B-Raf V600E | Fak | Kit

CCCS(=O)(=O)Nc1ccc(F)c(C(=O)c2c[nH]c3ncc(OC)cc23)c1 [Compound P-1433]
not listed: Jnk3
≤ 10 µM: all other assays above

NC(=O)c1ccc(-c2cnc3[nH]cc(Cc4ccccc4F)c3c2)cc1 [Compound P-1348]
not listed: Flt1 | c-Raf-1 | Fms
≤ 10 µM: all other assays above

COc1ccc(F)c(C(=O)c2c[nH]c3ncc(-c4cccc(NS(C)(=O)=O)c4)cc23)c1F [Compound P-1391, N-{3-[3-(2,6-Difluoro-3-methoxy-benzoyl)-1H-pyrrolo[2,3-b]pyridin-5-yl]-phenyl}-methanesulfonamide]
not listed: Flt1 | Jnk1 | Jnk3
≤ 10 µM: all other assays above

O=C(Nc1cccc(Cc2c[nH]c3ncc(-c4cccnc4)cc23)c1)NC1CCCC1 [Compound P-1446, 1-Cyclopentyl-3-[3-(5-pyridin-3-yl-1H-pyrrolo[2,3-b]pyridin-3-ylmethyl)-phenyl]-urea]
not listed: c-Raf-1 | Fms | Jnk3
≤ 10 µM: all other assays above

CCCS(=O)(=O)Nc1ccc(F)c(C(=O)c2c[nH]c3ncc(-c4ccc(N(C)C)cc4)cc23)c1F [Compound P-0889, Propane-1-sulfonic acid {3-[5-(4-dimethylamino-phenyl)-1H-pyrrolo[2,3-b]pyridine-3-carbonyl]-2,4-difluoro-phenyl}-amide]
not listed: Flt1 | Jnk1 | Fms | Jnk3
≤ 10 µM: all other assays above

COc1ccc(F)c(C(=O)c2c[nH]c3ncc(-c4ccccc4)cc23)c1F [Compound P-1387, (2,6-Difluoro-3-methoxy-phenyl)-(5-phenyl-1H-pyrrolo[2,3-b]pyridin-3-yl)-methanone]
not listed: Flt1 | Jnk1 | Jnk3
≤ 10 µM: all other assays above

CCCS(=O)(=O)Nc1ccc(F)c(C(=O)c2c[nH]c3ncc(C)cc23)c1F [Compound P-1249]
not listed: Flt1 | Jnk1 | Jnk3
≤ 10 µM: all other assays above

Fc1cccc(F)c1Cc1c[nH]c2ncc(-c3cccnc3)cc12 [Compound P-1477, 3-(2,6-Difluoro-benzyl)-5-pyridin-3-yl-1H-pyrrolo[2,3-b]pyridine]
not listed: Flt1 | c-Raf-1 | Jnk1 | Kit
≤ 10 µM: all other assays above

NC(=O)c1cccc(-c2cnc3[nH]cc(C(=O)c4ccccc4O)c3c2)c1 [Compound P-1384]
not listed: Flt1 | c-Raf-1
≤ 10 µM: all other assays above

CCCS(=O)(=O)Nc1ccc(F)c(Cc2c[nH]c3ncc(-c4cccnc4)cc23)c1F [Compound P-1397]
not listed: Flt1 | Jnk1 | Jnk3
≤ 10 µM: all other assays above

O=C(c1cccc(NS(=O)(=O)c2ccccc2)c1F)c1c[nH]c2ncc(Cl)cc12 [Compound P-1255, N-[3-(5-chloro-1H-pyrrolo[2,3-b]pyridine-3-carbonyl)-2-fluoro-phenyl]benzenesulfonamide]
not listed: Jnk1 | Jnk3
≤ 10 µM: all other assays above

CCCCS(=O)(=O)Nc1cccc(C(=O)c2c[nH]c3ncc(Cl)cc23)c1F [Compound P-1250, Butane-1-sulfonic acid [3-(5-chloro-1H-pyrrolo[2,3-b]pyridine-3-carbonyl)-2-fluoro-phenyl]-amide]
not listed: Jnk1 | Jnk3
≤ 10 µM: all other assays above

CCCS(=O)(=O)Nc1ccc(F)c(C(=O)c2c[nH]c3ncc(Br)cc23)c1 [Compound P-1403, Propane-1-sulfonic acid [3-(5-bromo-1H-pyrrolo[2,3-b]pyridine-3-carbonyl)-4-fluoro-phenyl]-amide]
not listed: B-Raf | Jnk1 | Jnk3
≤ 10 µM: all other assays above

CC(=O)Nc1cccc(-c2cnc3[nH]cc(Cc4ccccc4F)c3c2)c1 [Compound P-1347]
not listed: Flt1 | c-Raf-1 | Fms
≤ 10 µM: all other assays above

Reference: patent US8415469B2, “Compounds and methods for kinase modulation, and indications therefor” (Plexxikon Inc., priority 2005, dated 2013)
